Test results taken from patent EP3409761B1, “CULTURE MEDIUM COMPOSITION, AND METHOD FOR CULTURING CELL OR TISSUE USING SAID COMPOSITION” (Nissan Chemical Corporation, priority 2012, dated 2014).

Columns and labels:
[1] = tested on: human squamous carcinoma cell line A431; test: Effect of Gefitinib, Elrotinib on proliferation of A431 cells stimulated with human HB-EGF; type: cell-based; conditions: DAG 0.015%
Experimental: Each plate was cultured by being stood still in a CO2 incubator (37°C, 5% CO2). […] To the culture medium on days 4, 6 and 8 was added an ATP reagent (150 µL) (CellTiter-Glo (registered trade mark) Luminescent Cell Viability Assay, manufactured by Promega) to give a suspension, which was stood for about 10 min at room temperature, and the luminescence intensity (RLU value) was measured by FlexStation3 (manufactured by Molecular Devices), and the number of viable cells was measured by subtracting the luminescence value of the medium alone.

HepG2 cells [2] = test: Toxicity test of compound to hepatocytes: number of viable cells (Cell Titer-Glo); type: cell-based, human; conditions: DAG 0.015%, 1 day, no addition = 1
Experimental: (§1) This aqueous solution was sterilized at 121°C for 20 min in an autoclave. On the other hand, HepG2 cells was mixed with DMEM medium (manufactured by WAKO) at 100000 cells/mL, and the cell suspension was dispensed to the wells of a 96-well flat bottom ultra low adhesion surface microplate (manufactured by Corning Incorporated, #3474) at 100 µL/well. […] Successively, this plate was cultured by being stood still in a CO2 incubator (37°C, 5% CO2) for 1 day.
The culture medium (50 µL) after culturing for 1 day was dispensed to a 96-well titer plate (manufactured by Corning Incorporated), to this culture medium was added a Cell Titer-Glo (registered trade mark) reagent (manufactured by Promega, 50 µL), and the mixture was incubated at room temperature for 10 min. The luminescence intensity was measured by a multiplate reader (manufactured by Molecular Devices, FlexStation3) to measure the number of viable cells.

HepG2 cells [3] = test: Toxicity test of compound to hepatocytes: LDH activity measurement; type: cell-based, human; conditions: DAG 0.015%, 1 day
Experimental: as §1
To the culture medium (100 µL) after culturing for 1 day was added DMEM medium (manufactured by WAKO, 100 µL), and the plate was centrifuged by 4316.4 m·s^-2 (440G) for 15 min. The supernatant (100 µL) was dispensed to a 96-well titer plate (manufactured by Corning Incorporated), a reaction mixture (100 µL) in a cytotoxicity detection kit (manufactured by Roche Applied Science) was added, and the mixture was stood under shading at room temperature for 30 min. Successively, according to the protocol of the above-mentioned kit, the absorbance at 490 nm (reference; 600 nm) was measured by an absorbance spectrometer (manufactured by Molecular Devices, SPECTRA MAX 190), whereby the rate of the disordered cell, that is, cell disorder rate (%), was measured.

| Structure (SMILES) | % Control value of the RLU value (ATP measurement) ([1]; drug 0.1 µM, day 4) | % Control value of the RLU value (ATP measurement) ([1]; drug 0.1 µM, day 8) | % Control value of the RLU value (ATP measurement) ([1]; drug 0.3 µM, day 4) | % Control value of the RLU value (ATP measurement) ([1]; drug 0.3 µM, day 8) | % Control value of the RLU value (ATP measurement) ([1]; drug 1 µM, day 4) | % Control value of the RLU value (ATP measurement) ([1]; drug 1 µM, day 8) | % Control value of the RLU value (ATP measurement) ([1]; drug 3 µM, day 4) | % Control value of the RLU value (ATP measurement) ([1]; drug 3 µM, day 8) | relative cell number (HepG2 cells [2]; Troglitazone 20 µM) | relative cell number (HepG2 cells [2]; Troglitazone 40 µM) | relative cell number (HepG2 cells [2]; Troglitazone 60 µM) | relative cell number (HepG2 cells [2]; Troglitazone 100 µM) | cell disorder rate (HepG2 cells [3]; Troglitazone 20 µM) | cell disorder rate (HepG2 cells [3]; Troglitazone 40 µM) | cell disorder rate (HepG2 cells [3]; Troglitazone 60 µM) | cell disorder rate (HepG2 cells [3]; Troglitazone 100 µM) |
| --- | --- | --- | --- | --- | --- | --- | --- | --- | --- | --- | --- | --- | --- | --- | --- | --- |
| C#Cc1cccc(Nc2ncnc3cc(OCCOC)c(OCCOC)cc23)c1 [Elrotinib] | 88 % Control | 56 % Control | 89 % Control | 27 % Control | 21 % Control | 4 % Control | 4 % Control | 0 % Control | – | – | – | – | – | – | – | – |
| Cc1c(C)c2c(c(C)c1O)CCC(C)(COc1ccc(CC3SC(=O)NC3=O)cc1)O2 (stereo not shown) [Troglitazone] | – | – | – | – | – | – | – | – | 0.68 | 0.50 | 0.48 | 0.39 | 2.68% | 14.7% | 22.5% | 60.7% |
